Reference: patent US20110224231A1, “Novel Lactams as Beta Secretase Inhibitors” (Pfizer Inc., priority 2008, published 2011)
Where a name gives a salt, the structure may show the parent alone.

Target: T1, soluble human BACE (Homo sapiens, UniProt P56817)
T1 construct: cells secreting human recombinant soluble BACE; made in house; conditioned medium
Experiment: BACE activity Cell Free Assay (ELISA of cleaved synthetic APP substrate)
Type: biochemical
Conditions: not given
Experimental: A synthetic APP substrate that can be cleaved by beta˜secretase and having N-terminal biotin is used to assay beta-secretase activity in the presence or absence of the inhibitory compounds. […] The substrate and test compounds are added to 384 well polypropylene plates. The reaction is initiated by the addition of soluble BACE enzyme to a final volume of 12.5 μL per well. The final assay conditions are: 0.001˜300 μM compound inhibitor, 0.05M sodium acetate (pH 4.5), 3 μM substrate, soluble human BACE, and 2% DMSO. Concentrated conditioned media from cells secreting human recombinant soluble BACE was titrated to provide a source of BACE enzyme. The cell media can be used as either a crude BACE prep or BACE can be purified using any number of techniques, including immobilized BACE inhibitor purification columns. The assay mixture is incubated for 1 hour at 37° C., and the reaction is quenched by the addition of an equal volume of 0.1M Tris, pH 8. Half of the quenched mix is incubated on clear streptavidin coated 384 well polystyrene plates for 1 hour. An ELISA is then performed using an in˜house antibody that specifically recognizes the new C˜terminus created after cleavage by BACE. […] (These polyclonal antibodies were raised in rabbits by immunizing with antigen comprised of six amino acid residues present at the carboxy terminus of the wild-type soluble APPbeta sequence (NH2-ISEVKM-COOH) or seven amino acid residues present at the carboxy terminus of the Swedish mutation at the beta cleavage site (NH2-EISEVNL˜COOH) conjugated to keyhole limpet hemacyanin by methods known to those skilled in the art.) A secondary anti˜species Horseradish Peroxidase (HRP) conjugated antibody is then utilized. The readout, following assay development with TMB substrate and quenching with 0.09M sulfuric acid, is absorbance at 450 nm.

T1 sequence (P56817 46-457 limits assumed): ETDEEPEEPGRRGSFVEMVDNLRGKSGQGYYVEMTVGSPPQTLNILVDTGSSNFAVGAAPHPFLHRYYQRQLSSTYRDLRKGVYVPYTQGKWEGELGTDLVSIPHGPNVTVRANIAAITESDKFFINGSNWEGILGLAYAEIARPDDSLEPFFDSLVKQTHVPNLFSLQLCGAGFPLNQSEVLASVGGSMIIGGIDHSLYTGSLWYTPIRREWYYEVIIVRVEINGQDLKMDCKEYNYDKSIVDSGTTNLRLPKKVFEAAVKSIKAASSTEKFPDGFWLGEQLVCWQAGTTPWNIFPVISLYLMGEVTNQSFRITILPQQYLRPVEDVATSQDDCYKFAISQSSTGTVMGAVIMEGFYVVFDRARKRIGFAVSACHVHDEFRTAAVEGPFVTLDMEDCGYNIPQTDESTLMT

First: CC1CC2(C=CC(=O)N2c2cccc(F)c2)CCN1Cc1ccc(OC(F)F)c(OC2CC2)c1 (racemic) [Example 80, Racemic (5R,7S),(5S,7R)-8-[3-(cyclopropyloxy)-4-(difluoromethoxy)benzyl]-1-(3-fluorophenyl)-7-methyl-1,8-diazaspiro[4.5]dec-3-en-2-one]
Second: COc1cc(CN2CCC3(C=CC(=O)N3c3cccc(F)c3)CC2C)ccc1F (racemic) [Example 13, Racemic (5R,7S),(5S,7R)-8-(4-fluoro-3-methoxybenzyl)-1-(3-fluorophenyl)-7-methyl-1,8-diazaspiro[4.5]dec-3-en-2-one]
The IC50 of the first is higher: 100 to 300 µM for the first, 10 to 100 µM for the second.

Compared with `C[C@H]1C[C@@]2(C=CC(=O)N2c2cnccn2)CCN1Cc1ccnn1CC(F)(F)F` [#134, (5R,7S)-7-methyl-1-pyrazin-2-yl-8-[(1-(2,2,2-trifluoroethyl)-1H-pyrazol-5-yl]methyl]-1,8-diazaspiro[4.5]dec-3-en-2-one], `C[C@H]1C[C@@]2(C=CC(=O)N2c2cnccn2)CCN1Cc1ccc(O)c(Cl)c1` [#140, (5R,7S)-8-(3-chloro-4-hydroxybenzyl)-7-methyl-1-pyrazin-2-yl-1,8-diazaspiro[4.5]dec-3-en-2-one, ammonium salt] is lower in IC50: 100 to 300 µM for the first, 10 to 100 µM for the second.

`C[C@H]1C[C@@]2(C=CC(=O)N2c2cccc(F)c2)CCN1Cc1ncoc1-c1ccccc1` [#207] and `CC1CC2(C=CC(=O)N2c2cccc(F)c2)CCN1Cc1cccc(Oc2ccccc2)c1` (racemic) [Example 22, Racemic (5R,7S),(5S,7R)-1-(3-fluorophenyl)-7-methyl-8-(3-phenoxybenzyl)-1,8-diazaspiro[4.5]dec-3-en-2-one] fall in the same range of IC50: 10 to 100 µM for the first, 10 to 100 µM for the second.

`CC(C)Oc1cccc(CN2CC[C@]3(C=CC(=O)N3c3cncc(F)c3)C[C@@H]2C)c1` [#116] and `CC(C)Oc1cccc(CN2CCC3(C=CC(=O)N3c3cccc(F)c3)CC2C)c1` (racemic) [Example 16, Racemic (5R,7S),(5S,7R)-1(3-fluorophenyl)-8-(3-isopropoxybenzyl)-7-methyl-1,8-diazaspiro[4.5]dec-3-en-2-one] fall in the same range of IC50: 1 to 10 µM for the first, 1 to 10 µM for the second.

`Cc1ccccc1-c1cc(CN2CC[C@]3(C=CC(=O)N3c3cccc(F)c3)C[C@@H]2C)ccc1O` [#202] and `Cc1ccc(F)cc1-c1cc(CN2CC[C@]3(C=CC(=O)N3c3cccc(F)c3)C[C@@H]2C)ccc1O` [#209] fall in the same range of IC50: 0.001 to 1 µM for the first, 0.001 to 1 µM for the second.

First: CC1CC2(C=CC(=O)N2c2cccc(F)c2)CCN1Cc1cc(Br)ccc1F (racemic) [Example 23, Racemic (5R,7S),(5S,7R)-8-(5-bromo-2-fluorobenzyl)-1-(3-fluorophenyl)-7-methyl-1,8-diazaspiro[4.5]dec-3-en-2-one]
Second: COc1ccc(F)c(CN2CCC3(C=CC(=O)N3c3cccc(F)c3)CC2C)c1 (racemic) [Example 14, Racemic (5R,7S),(5S,7R)-8-(2-fluoro-5-methoxybenzyl)-1-(3-fluorophenyl)-7-methyl-1,8-diazaspiro[4.5]dec-3-en-2-one]
The IC50 of the first is lower: 10 to 100 µM for the first, 100 to 300 µM for the second. The first is the more potent here.

Compared with `CC1CC2(C=CC(=O)N2c2cccc(F)c2)CCN1Cc1cccc(-c2ccc(C(F)(F)F)cn2)c1` (racemic) [Example 30, Racemic (5R,7S),(5S,7R)-1-(3-fluorophenyl)-7-methyl-8-{3-[5-(trifluoromethyl)pyridin-2-yl]benzyl}-1,8-diazaspiro[4.5]dec-3-en-2-one], `CC1CC2(C=CC(=O)N2c2cccc(F)c2)CCN1Cc1cccc(Oc2ccc(Cl)cc2)c1` (racemic) [Example 29, Racemic (5R,7S),(5S,7R)-8-[3-(4-chlorophenoxy)benzyl]-1-(3-fluorophenyl)-7-methyl-1,8-diazaspiro[4.5]dec-3-en-2-one] is lower in IC50: 100 to 300 µM for the first, 10 to 100 µM for the second. The second is the more potent here.

Compared with `Cc1cccc(N2C(=O)C=C[C@]23CCN(Cc2ccc(O)c(-c4sccc4C)c2)[C@@H](C)C3)n1` [#136, (5R,7S)-8-[4-hydroxy-3-(3-methyl-2-thienyl)benzyl]-7-methyl-1-(6-methylpyridin-2-yl)-1,8-diazaspiro[4.5]dec-3-en-2-one], `Cc1ccsc1-c1cc(CN2CC[C@]3(CCC(=O)N3c3cccc(F)c3)C[C@@H]2C)ccc1O` [#217] is higher in IC50: 0.001 to 1 µM for the first, 1 to 10 µM for the second. The first is the more potent here.

First: CCCn1nccc1CN1CCC2(CCC(=O)N2c2cccc(F)c2)CC1C (racemic) [Example 39, Racemic (5R,7S),(5S,7R)-1-(3-fluorophenyl)-7-methyl-8-[(1-propyl-1H-pyrazol-5-yl)methyl]-1,8-diazaspiro[4.5]decan-2-one]
Second: Cc1cc(CN2CCC3(CCC(=O)N3c3cccc(F)c3)CC2C)ccc1O (racemic) [Example 38, Racemic (5R,7S),(5S,7R)-1-(3-fluorophenyl)-8-(4-hydroxy-3-methylbenzyl)-7-methyl-1,8-diazaspiro[4.5]decan-2-one]
The IC50 of the first is higher: 100 to 300 µM for the first, 10 to 100 µM for the second.

`CC(C)Oc1cccc(CN2CC[C@]3(CC(C)C(=O)N3c3cccc(F)c3)C[C@@H]2C)c1` (stereo partly drawn) [Example @96, (5R,7S)˜1˜(3˜Fluorophenyl)˜8˜(3˜isopropoxybenzyl)˜3,7˜dimethyl˜1,8˜diazaspiro[4.5]decan˜2˜one, hydrochloride salt] and `CC(C)Oc1cccc(CN2CC[C@]3(CC(O)C(=O)N3c3cccc(F)c3)C[C@@H]2C)c1` (mixture of isomers) [Example 92, Racemic (3R/S,5R,7S)(3R/S,5S,7R)˜1˜(3˜fluorophenyl)˜3˜hydroxy˜8˜(3˜isopropoxybenzyl)-7-methyl-1,8-diazaspiro[4.5]decan-2-one, hydrochloride salt] fall in the same range of IC50: 10 to 100 µM for the first, 10 to 100 µM for the second.

`CC(C)Oc1cccc(CN2CC[C@]3(C=CC(=O)N3c3ccccn3)C[C@@H]2C)c1` [#101] and `CC(C)Oc1cccc(CN2CC[C@]3(C=CC(=O)N3c3cccnc3)C[C@@H]2C)c1` [#111] fall in the same range of IC50: 10 to 100 µM for the first, 10 to 100 µM for the second.

First: Cc1ccccc1-c1cc(CN2CC[C@]3(CCC(=O)N3c3cccc(F)c3)C[C@@H]2C)ccc1O [#215]
Second: CC1CC2(CCC(=O)N2c2cccc(F)c2)CCN1Cc1cccc(Oc2ccccc2)c1 (racemic) [Example 52, Racemic (5R,7S),(5S,7R)-1-(3-fluorophenyl)-7-methyl-8-(3-phenoxybenzyl)-1,8-diazaspiro[4.5]decan-2-one]
The IC50 of the first is lower: 0.001 to 1 µM for the first, 10 to 100 µM for the second.

`CC(C)Oc1cccc(CN2CC[C@]3(C=CC(=O)N3c3cc(C(F)(F)F)ccn3)C[C@@H]2C)c1` [#119] and `CC(C)COc1cccc(CN2CCC3(CCC(=O)N3c3cccc(F)c3)CC2C)c1` (racemic) [Example 48, Racemic (5R,7S),(5S,7R)-1-(3-fluorophenyl)-8-(3-isobutoxybenzyl)-7-methyl-1,8-diazaspiro[4.5]decan-2-one] fall in the same range of IC50: 100 to 300 µM for the first, 100 to 300 µM for the second.

First: CC1CC2(CCC(=O)N2c2cccc(F)c2)CCN1Cc1nc(-c2cccc(Cl)c2)cs1 (racemic) [Example 81, Racemic (5R,7S),(5S,7R)-8-{[4-(3-chlorophenyl)-1,3-thiazol-2-yl]methyl}-1-(3-fluorophenyl)-7-methyl-1,8-diazaspiro[4.5]decan-2-one]
Second: CC(=O)Nc1ccc(CN2CCC3(CCC(=O)N3c3cccc(F)c3)CC2C)cc1 (racemic) [Example 69, Racemic N-(4-{[(5R,7S),(5S,7R)-1-(3-fluorophenyl)-7-methyl-2-oxo-1,8-diazaspiro[4.5]dec-8-yl]methyl}phenyl)acetamide]
The IC50 of the first is higher: 100 to 300 µM for the first, 10 to 100 µM for the second. The second is the more potent here.

First: COc1ccc(Oc2cccc(CN3CCC4(CCC(=O)N4c4cccc(F)c4)CC3C)c2)cc1 (racemic) [Example 35, Racemic (5R,7S),(5S,7R)-1-(3-fluorophenyl)-8-[3-(4-methoxyphenoxy)benzyl]-7-methyl-1,8-diazaspiro[4.5]decan-2-one]
Second: CC1CC2(CCC(=O)N2c2cccc(F)c2)CCN1Cc1cccc(S(=O)(=O)N2CCCC2)c1 (racemic) [Example 36, Racemic (5R,7S),(5S,7R)-1-(3-fluorophenyl)-7-methyl-8-[3-(pyrrolidin-1-ylsulfonyl)benzyl]-1,8-diazaspiro[4.5]decan-2-one]
The IC50 of the first is lower: 10 to 100 µM for the first, 100 to 300 µM for the second. The first is the more potent here.

Work on `CC1CC2(C=CC(=O)N2c2cccc(F)c2)CCN1Cc1c[nH]c2ccc(C#N)cc12` (racemic) [Example 61, Racemic 3-{[(5R,7S),(5S,7R)-1-(3-fluorophenyl)-7-methyl-2-oxo-1,8-diazaspiro[4.5]dec-3-en-8-yl]methyl}-1H-indole-5-carbonitrile] yielded an IC50 of 10 to 100 µM.

Same assay, conditions: Table 4; cell free, soluble human BACE, pH 4.5, 3 μM substrate; read-out: BACE Activity (Cell Free Assay IC50)

`CC(C)Oc1cccc(CN2CC[C@]3(C=CC(=O)N3c3cccc(C(F)(F)F)n3)C[C@@H]2C)c1` [#125] and `Cc1ccc(N2C(=O)C=C[C@]23CCN(Cc2cccc(OC(C)C)c2)[C@@H](C)C3)nc1` [#105] fall in the same range of IC50: 10 to 100 µM for the first, 10 to 100 µM for the second.

Same assay, conditions: Table 6; cell free, soluble human BACE, pH 4.5, 3 μM substrate; read-out: BACE Activity (Cell Free Assay IC50)

`CC(C)Oc1cccc(CN2CC[C@]3(C=CC(=O)N3CC3CC3)C[C@@H]2C)c1` [Example @93, (5R,7S)-1-(cyclopropylmethyl)-8-(3-isopropoxybenzyl)-7-methyl-1,8-diazaspiro[4.5]dec-3-en-2-one] and `CCCN1C(=O)C=C[C@]12CCN(Cc1cccc(OC(C)C)c1)[C@@H](C)C2` [Example @94, (5R,7S)˜8˜(3˜isopropoxybenzyl)˜7˜methyl˜1˜propyl˜1,8-diazaspiro[4.5]dec˜3˜en˜2˜one] fall in the same range of IC50: 100 to 300 µM for the first, 100 to 300 µM for the second.
